The source made the active and inactive calls. The rule behind the calls is not given here.
System: T. cruzi-infected H9C2 cardiomyocytes, high-content imaging
Assay: anti-T. cruzi activity in infected cardiomyocytes – imaging, H9C2 host cardiomyocytes, host toxicity (AID 1159565);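 note: infected cells incubated 72 h after plating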
[1] = measured here: H9C2 host cell toxicity
[2] = measured here: amastigotes per cell

## COc1ccc([N+](=O)[O-])cc1NC(=O)Nc1cccc(Cl)c1
  IC50: 10 µM
[1]
  IC50: > 50 µM
[2]
  IC50: 0.4 µM

## COc1ccc2ncc(=O)n(CCN3CC[C@H](NCc4ncc(Cl)c5[nH]ncc45)[C@H](O)C3)c2n1
  IC50: 3.2 µM
[1]
  IC50: > 50 µM
[2]
  IC50: 1.6 µM

## CCOc1ccc(N(C)S(=O)(=O)c2ccc3[nH]cc(C(=O)NC4CCCC4)c(=O)c3c2)cc1
  IC50: > 50 µM (inactive)
[1]
  IC50: > 50 µM
[2]
  IC50: 6.3 µM

## COc1cc2c(cc1OC)[C@H]1[C@@H](C)c3ccc(OC)c(OC)c3CN1CC2
  IC50: > 50 µM (inactive)
[1]
  IC50: > 50 µM
[2]
  IC50: 20 µM

## O=c1cc(NCCCNCc2cc(C(F)(F)F)cs2)[nH]c2ccccc12
  IC50: > 50 µM (inactive)
[1]
  IC50: 32 µM
[2]
  IC50: 5 µM

## O=C1CCCCCC1(Cc1cnc[nH]1)c1ccc(Cl)cc1Cl (centres undefined)
  IC50: 0.25 µM
[1]
  IC50: > 50 µM
[2]
  IC50: 0.32 µM

## CN(C(=O)Nc1ccc2c(c1)CCN(C1CCC1)CC2)c1ccc(C#N)cc1
  IC50: 4 µM
[1]
  IC50: > 50 µM
[2]
  IC50: 2 µM

## CCOc1ccc2nc(NC(=O)c3ccc([N+](=O)[O-])s3)sc2c1
  IC50: 1.3 µM
[1]
  IC50: 10 µM
[2]
  IC50: 1 µM

## COCc1cnc2c(c1SCc1c(F)cccc1Cl)c(=O)n(C)c(=O)n2C
  IC50: 4 µM
[1]
  IC50: > 50 µM
[2]
  IC50: 2.5 µM

## O=C(N[C@H](CO)c1ccccc1)c1ccc(-c2c[nH]c3nccc(C(F)(F)F)c23)s1
  IC50: 10 µM
[1]
  IC50: 13 µM
[2]
  IC50: 10 µM

## COc1ccc(CNc2nsc3ccccc23)cc1OC
  IC50: 25 µM
[1]
  IC50: > 50 µM
[2]
  IC50: 20 µM

## O=C(Nc1nc(-c2ccc(F)cc2)cs1)c1ccc([N+](=O)[O-])s1
  IC50: 0.25 µM
[1]
  IC50: 4 µM
[2]
  IC50: 0.16 µM

## CCCn1c(NC(=O)CCn2cc(Br)cn2)nc2ccccc21
  IC50: 6.3 µM
[1]
  IC50: 25 µM
[2]
  IC50: 2.5 µM

Reference: PubChem BioAssay AID1159565 (GlaxoSmithKline (GSK), 2015)
